# Data from patent US20240124434A1, “ATF6 INHIBITORS AND USES THEREOF” (Altos Labs, Inc., priority 2018, published 2024).
# Like-named read-outs stand apart in the source and are kept apart here.
# Experiments:
# CYP2C9 = CYP2C9 (Homo sapiens (Human), UniProt P11712); test: CYP inhibition in human liver microsomes
# In short: (§1)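 Pooled human liver microsomes with isoform probe substrates: 2 μM midazolam (CYP3A4, 10 min), 50 μM phenacetin (CYP1A2), 5 μM diclofenac (CYP2C9), both 20 min; CYP2C8 run 20 min, desethylamodiaquine formation. Metabolites (1-hydroxymidazolam, acetaminophen, 4-hydroxydiclofenac) quantified by LC/MS/MS after acetonitrile stop.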
# CYP3A4 = CYP3A4 (Homo sapiens (Human), UniProt P08684); test: CYP inhibition in human liver microsomes
# CYP3A4, sequence (P08684 whole entry): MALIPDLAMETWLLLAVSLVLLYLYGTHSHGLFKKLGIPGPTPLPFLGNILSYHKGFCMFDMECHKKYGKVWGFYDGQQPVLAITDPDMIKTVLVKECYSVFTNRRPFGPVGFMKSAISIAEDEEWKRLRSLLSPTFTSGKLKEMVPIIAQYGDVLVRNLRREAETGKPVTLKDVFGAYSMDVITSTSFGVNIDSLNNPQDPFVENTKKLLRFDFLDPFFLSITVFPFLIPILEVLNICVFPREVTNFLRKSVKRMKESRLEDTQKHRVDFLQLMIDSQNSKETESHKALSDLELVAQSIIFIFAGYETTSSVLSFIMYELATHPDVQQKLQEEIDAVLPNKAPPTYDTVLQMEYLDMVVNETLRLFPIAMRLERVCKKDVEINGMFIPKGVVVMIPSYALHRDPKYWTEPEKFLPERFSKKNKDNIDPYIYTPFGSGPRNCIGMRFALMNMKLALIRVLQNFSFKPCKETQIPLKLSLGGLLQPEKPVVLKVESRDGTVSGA
# In short: as §1
# CYP1A2 = CYP1A2 (Homo sapiens (Human), UniProt P05177); test: CYP inhibition in human liver microsomes
# CYP1A2, sequence (P05177 whole entry): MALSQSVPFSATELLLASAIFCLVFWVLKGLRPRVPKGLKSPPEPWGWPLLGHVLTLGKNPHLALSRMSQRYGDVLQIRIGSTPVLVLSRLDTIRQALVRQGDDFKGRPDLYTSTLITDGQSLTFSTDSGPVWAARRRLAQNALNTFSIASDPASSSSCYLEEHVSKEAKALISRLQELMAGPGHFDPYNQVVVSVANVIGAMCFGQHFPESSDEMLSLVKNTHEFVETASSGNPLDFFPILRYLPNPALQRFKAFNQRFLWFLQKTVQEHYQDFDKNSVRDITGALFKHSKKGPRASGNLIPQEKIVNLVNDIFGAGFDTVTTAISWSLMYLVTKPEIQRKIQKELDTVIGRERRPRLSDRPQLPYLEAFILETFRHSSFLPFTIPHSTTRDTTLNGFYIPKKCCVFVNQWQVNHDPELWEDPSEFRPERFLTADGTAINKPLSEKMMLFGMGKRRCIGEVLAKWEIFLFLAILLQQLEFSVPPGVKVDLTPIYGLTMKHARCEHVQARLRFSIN
# In short: as §1
# CYP2B6 = CYP2B6 (Homo sapiens (Human), UniProt P20813); test: CYP inhibition in human liver microsomes
# CYP2B6, sequence (P20813 whole entry): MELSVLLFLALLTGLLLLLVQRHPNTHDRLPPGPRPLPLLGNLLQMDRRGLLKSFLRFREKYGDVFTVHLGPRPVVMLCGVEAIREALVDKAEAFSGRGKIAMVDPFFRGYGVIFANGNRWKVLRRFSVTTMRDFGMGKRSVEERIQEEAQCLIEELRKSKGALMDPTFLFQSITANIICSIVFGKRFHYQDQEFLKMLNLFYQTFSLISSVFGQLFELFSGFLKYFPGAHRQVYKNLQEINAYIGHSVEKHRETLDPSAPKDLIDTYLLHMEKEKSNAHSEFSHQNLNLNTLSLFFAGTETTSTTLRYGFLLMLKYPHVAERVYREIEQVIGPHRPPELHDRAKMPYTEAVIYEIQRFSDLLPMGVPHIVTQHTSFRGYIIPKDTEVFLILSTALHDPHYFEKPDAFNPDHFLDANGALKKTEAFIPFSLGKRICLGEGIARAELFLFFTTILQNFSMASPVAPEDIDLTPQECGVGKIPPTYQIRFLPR
# CYP2C19 = CYP2C19 (Homo sapiens (Human), UniProt P33261); test: CYP inhibition in human liver microsomes
# CYP2C19, sequence (P33261 whole entry): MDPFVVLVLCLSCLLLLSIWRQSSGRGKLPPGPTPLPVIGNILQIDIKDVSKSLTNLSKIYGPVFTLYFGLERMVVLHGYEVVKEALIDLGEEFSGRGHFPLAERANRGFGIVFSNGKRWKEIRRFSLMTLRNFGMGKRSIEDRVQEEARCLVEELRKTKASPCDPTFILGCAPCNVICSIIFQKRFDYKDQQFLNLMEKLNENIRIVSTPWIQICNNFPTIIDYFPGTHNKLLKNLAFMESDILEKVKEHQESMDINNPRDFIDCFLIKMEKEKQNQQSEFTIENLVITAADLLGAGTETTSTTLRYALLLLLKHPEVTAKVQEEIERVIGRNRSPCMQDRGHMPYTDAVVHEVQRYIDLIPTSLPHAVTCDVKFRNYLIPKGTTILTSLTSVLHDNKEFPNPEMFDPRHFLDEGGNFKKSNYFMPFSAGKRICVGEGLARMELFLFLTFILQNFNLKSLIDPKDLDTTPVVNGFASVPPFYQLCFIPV
# CYP2D6 = CYP2D6 (Homo sapiens (Human), UniProt P10635); test: CYP inhibition in human liver microsomes
# CYP2D6, sequence (P10635 whole entry): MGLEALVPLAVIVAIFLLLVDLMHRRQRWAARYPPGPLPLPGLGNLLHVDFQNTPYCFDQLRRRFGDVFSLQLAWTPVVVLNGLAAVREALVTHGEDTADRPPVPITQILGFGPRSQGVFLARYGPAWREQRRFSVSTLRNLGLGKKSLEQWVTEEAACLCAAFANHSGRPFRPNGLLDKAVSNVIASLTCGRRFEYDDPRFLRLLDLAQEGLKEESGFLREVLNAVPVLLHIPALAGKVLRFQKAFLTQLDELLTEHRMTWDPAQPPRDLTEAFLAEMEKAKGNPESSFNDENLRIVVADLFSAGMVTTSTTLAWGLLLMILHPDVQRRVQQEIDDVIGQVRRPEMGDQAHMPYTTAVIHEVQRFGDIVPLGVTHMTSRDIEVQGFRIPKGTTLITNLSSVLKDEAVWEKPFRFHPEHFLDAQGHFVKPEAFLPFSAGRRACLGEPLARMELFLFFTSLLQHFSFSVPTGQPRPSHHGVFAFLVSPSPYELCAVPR
# [1] = Oral bioavailability and PK parameters in Balb/c mice; conditions: single oral dose 10 mg/kg; for Vz: volume of distribution
# Experimental: (§3) Tested compounds were formulated at 1 mg/mL as a dosing solution for oral administration in vehicle A: 10% dimethylacetamide (DMAC), 20% propylene glycol, and 40% PEG-400 or vehicle B: 10% Kolliphor® EL and 10% ethanol (EtOH).
# (§4) Animals were acclimated for a minimum period of 4 days upon arrival at the testing facility.
# (§5) At the day of study, mice were weighed, identified by marking the tail with numbers using a non-toxic permanent marker, and designated into ten experimental groups (n=3 per group).
# (§6) Non-dosed mice were used to collect samples of zero time points. […] Blood samples were centrifuged immediately at 9,000 g at 4° C. for 5 minutes and then plasmas were separated. Plasma samples were placed into individually labeled cryovials and stored in a −80° C. freezer until LC/MS/MS bioanalysis.
# (§7) The bioanalysis of plasma samples was conducted with a QTRAP 4500 triple quadrupole mass spectrometer (Applied Biosystems SCIEX) in the positive ion mode and interfaced with an Ekspert Ultra LC100 UPLC System (Eksigent). Calibration standards (0.01 to 10 μM) and QCs (0.02, 0.2 and 2.0 μM) were prepared from naïve mouse plasma in parallel with mouse plasma study samples (60 μL) by precipitation with three volumes of ice cold internal standard solution (acetonitrile containing 20 μM of theophylline). The precipitated samples were centrifuged at 6,100 g for 30 min. Following centrifugation, an aliquot of each supernatant was transferred to an autosampler plate and diluted with two volumes of aqueous mobile phase (0.1% formic acid in water). Samples were injected onto a reverse phase analytical column (YMC Triart C18; 2.0×50 mm; 1.9 μm; YMC CO) and eluted with a gradient of 0.1% formic acid in Acetonitrile. Assayed test compound and internal standards were monitored by a multiple reaction monitoring (MRM) experiment using an Analyst software (v1.6.2, Applied Biosystems SCIEX). Quantitation was conducted using a MultiQuant software (v2.1, Applied Biosystems SCIEX) and the resulting calibration curve was fitted with a linear regression and 1/x weighting. The lower limits of quantitation were 1<LLQ <5 ng/mL.
# in vivo = conditions: Balb/c, mouse, po, 10 mg/kg
# Experimental: as §3, §4, §5, §6, §7
# [2] = In vitro microsomal stability, human liver microsomes; format: in vitro ADME; conditions: for Rem. @ hLM (%): remaining fraction after 30 min, 1 mM NADPH
# In short: (§2)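 1 μM compound was incubated at 37 °C with 0.5 mg/mL human, mouse or rat liver microsomes and 1 mM NADPH in 100 mM phosphate buffer pH 7.4. Reactions were stopped at 0, 5, 15 and 30 min with cold acetonitrile containing propranolol internal standard.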
# [3] = In vitro microsomal stability, mouse liver microsomes; format: in vitro ADME; conditions: for Rem. @ mLM (%): remaining fraction after 30 min, 1 mM NADPH
# In short: as §2
# [4] = In vitro microsomal stability, rat liver microsomes; format: in vitro ADME; conditions: for Rem. @ rLM (%): remaining fraction after 30 min, 1 mM NADPH
# In short: as §2
# ATF6 = test: ERSE ATF6-luciferase reporter assay (thapsigargin-induced ER stress); format: cell-based, human
# [5] = mouse, in vivo, po, 10 mg/kg
# Experimental: as §3, §4, §5, §6, §7
# [6] = Kinetic solubility (nephelometry); format: physicochemical; conditions: PBS pH 7.4, 1% DMSO, 1 hour at 37° C., light scattering at 625 nm
# Experimental: Concentration (μM) was then calculated by segmental regression. Amiodarone (#A8423 Aldrich) was used as positive control.
# [7] = 1 μM compound, 0.5 mg/mL human liver microsomes
# [8] = 1 μM compound, 0.5 mg/mL mouse liver microsomes
# [9] = 1 μM compound, 0.5 mg/mL rat liver microsomes
# CYP2C9, sequence (P11712 whole entry, canonical isoform): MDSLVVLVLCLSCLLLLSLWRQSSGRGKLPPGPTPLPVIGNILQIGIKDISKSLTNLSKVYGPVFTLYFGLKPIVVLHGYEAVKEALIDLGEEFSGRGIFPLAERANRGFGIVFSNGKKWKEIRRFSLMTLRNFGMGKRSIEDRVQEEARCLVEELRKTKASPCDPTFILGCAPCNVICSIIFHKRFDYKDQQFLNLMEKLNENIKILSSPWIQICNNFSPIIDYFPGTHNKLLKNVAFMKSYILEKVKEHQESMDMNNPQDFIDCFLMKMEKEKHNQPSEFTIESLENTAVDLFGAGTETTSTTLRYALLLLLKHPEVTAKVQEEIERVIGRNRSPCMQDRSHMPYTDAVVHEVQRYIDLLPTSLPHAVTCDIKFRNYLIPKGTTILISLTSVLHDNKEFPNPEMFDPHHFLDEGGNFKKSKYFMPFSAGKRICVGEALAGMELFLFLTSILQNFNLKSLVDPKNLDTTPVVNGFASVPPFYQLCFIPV
smiles,measurement,setting,value
"CC(c1ccc(C(F)(F)F)cc1C(F)(F)F)n1cc(NC(=O)c2cc(-c3ccccn3)on2)cn1 (single isomer, unassigned) [“Enantiomer A” of Example S5, N-(1-(1-(2,4-bis(trifluoromethyl)phenyl)ethyl)-1H-pyrazol-4-yl)-5-(pyridin-2-yl)isoxazole-3-carboxamide]",IC50,CYP2C9,3.07 µM
same,IC50,CYP3A4,> 50 µM
same,IC50,CYP1A2,> 50 µM
same,IC50,CYP2B6,2.49 µM
same,IC50,CYP2C19,2.31 µM
same,IC50,CYP2D6,2.3 µM
same,Vz,[1],3.07 L/kg
same,AUC(0-inf),in vivo,32400 ng·h/mL
same,AUC(0-t),in vivo,18500 ng·h/mL
same,Cmax,in vivo,4590 ng/mL
same,Tmax,in vivo,1 h
same,half-life,in vivo,6.88 h
same,half-life at 1 μM,"[2]; human, human liver microsomes, pH 7.4, read-out: T1/2 @ hLM",1.66 h
same,microsomal CLint at 1 μM,"[2]; pH 7.4, intrinsic clearance, human liver microsomes, read-out: Clint @ hLM",13.9 µL/min/mg
same,Rem. @ hLM (%),[2]; [7],81.9%
same,half-life at 1 μM,"[3]; mouse, mouse liver microsomes, pH 7.4, read-out: T1/2 @ mLM",0.582 h
same,microsomal CLint at 1 μM,"[3]; pH 7.4, intrinsic clearance, mouse liver microsomes, read-out: Clint @ mLM",39.7 µL/min/mg
same,Rem. @ mLM (%),[3]; [8],53.8%
same,microsomal CLint at 1 μM,"[4]; pH 7.4, intrinsic clearance, rat liver microsomes, read-out: Clint @ rLM",11.5 µL/min/mg
same,half-life at 1 μM,"[4]; rat, rat liver microsomes, pH 7.4, read-out: T1/2 @ rLM",2.02 h
same,Rem. @ rLM (%),[4]; [9],80%
same,IC50,ATF6,< 1 µM
same,Inh. ATF6-Luc @ 1 μM [%],"ATF6; 8 h, 1 µM",+++ (+++ refers to >50% inhibition at 1 μM test compound)
same,AUCExtr [%],[5]; Balb/c,43%
same,F [%],[5]; Balb/c,66.3%
same,Last time point for AUClast,[5],8 h
same,solubility kinetic at 1 h,"[6]; aqueous buffer, kinetic from dmso stock",4.68 µM
"O=C(Nc1cnn(Cc2ccc(C(F)(F)F)cc2C(F)(F)F)c1)c1cc(-c2ccco2)on1 [Ceapin-A7, reference compound]",IC50,CYP2C9; microsomes,> 45.3 µM
same,IC50,"CYP3A4; read-out: CYP-3A4, human liver microsomes, probe substrate midazolam",> 50 µM
same,IC50,CYP1A2; microsomes,> 50 µM
same,IC50,CYP2B6; microsomes,7.48 µM
same,IC50,CYP2D6; microsomes,> 50 µM
same,F [%],[1]; Bioavailability,1.04%
same,Last time point for AUClast,[1],6 h
same,CL,[1]; clearance,231 L/h/kg
same,t1/2,[1]; half-life,2.49 h
same,AUCinf,[1]; plasma,43.3 ng·h/mL
same,AUClast,[1]; plasma,39.1 ng·h/mL
same,Cmax,[1]; plasma,68.7 ng/mL
same,Tmax,[1]; plasma,0.25 h
same,AUCExtr [%],"[1]; plasma, extrapolated AUC",9.56%
same,Vz,[1],831 L/kg
same,T1/2 @ hLM,"[2]; half-life, 1 μM compound, 0.5 mg/mL human liver microsomes",0.36 h
same,Clint @ hLM,"[2]; intrinsic clearance, human liver microsomes",64.2 µL/min/mg
same,Rem. @ hLM (%),[2]; [7],35.4%
same,T1/2 @ mLM,"[3]; half-life, 1 μM compound, 0.5 mg/mL mouse liver microsomes",9.84 min
same,Clint @ mLM,"[3]; intrinsic clearance, mouse liver microsomes",141 µL/min/mg
same,Rem. @ mLM (%),[3]; [8],12%
same,T1/2 @ rLM,"[4]; half-life, 1 μM compound, 0.5 mg/mL rat liver microsomes",0.19 h
same,Clint @ rLM,"[4]; intrinsic clearance, rat liver microsomes",121 µL/min/mg
same,Rem. @ rLM (%),[4]; [9],14.5%
same,Inh. ATF6-Luc @ 1 μM [%],"ATF6; 1 μM test compound, thapsigargin-induced ER stress, U2-OS ATF6 luc reporter cells, 8 hr",+++ (+++ refers to >50% inhibition at 1 μM test compound)
same,IC50,"ATF6; dose-response 30 μM to 1 nM, thapsigargin-induced ER stress, U2-OS ATF6 luc reporter cells, read-out: IC50 ATF6-Luc reporter",< 1 µM
same,solubility kinetic at 1 h,[6],27.7 µM
